Data taken from patent US20150105252A1, “SUBSTITUTED PYRAZOLES AS HERBICIDES” (E I DU PONT DE NEMOURS AND COMPANY, priority 2013, published 2015).

Tests used:
blackgrass = test: Test D preemergence; format: in vivo, Alopecurus myosuroides; settings: scale 0 to 100
Summary of the method: (§1)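 Scores of 0 (no effect) to 100 (complete control) come from visual comparison with untreated plants 14–21 days after spraying. Applications were made pre-emergence to silt loam or post-emergence to plants 2–18 cm tall.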

bromegrass, downy = test: Test D preemergence; format: in vivo, Bromus tectorum; settings: scale 0 to 100
Summary of the method: as §1

field poppy = test: Test D preemergence; format: in vivo, Papaver rhoeas; settings: scale 0 to 100
Summary of the method: as §1

field violet = test: Test D preemergence; format: in vivo, Viola arvensis; settings: scale 0 to 100
Summary of the method: as §1

oilseed rape [1] = test: Test D preemergence; format: in vivo, Brassica napus; settings: scale 0 to 100
Summary of the method: as §1

oilseed rape [2] = test: Test D postemergence; format: in vivo, Brassica napus; settings: scale 0 to 100
Summary of the method: as §1

speedwell = test: Test D postemergence; format: in vivo, Veronica persica; settings: scale 0 to 100
Summary of the method: as §1

barley, spring = test: Test D postemergence; format: in vivo, Hordeum vulgare; settings: scale 0 to 100
Summary of the method: as §1

barley, winter = test: Test D postemergence; format: in vivo, Hordeum vulgare; settings: scale 0 to 100
Summary of the method: as §1

corn = test: Test F preemergence; format: in vivo, Zea mays
Summary of the method: (§2)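 Planting in silt loam, then preemergence treatment; postemergence treatment in parallel on 1- to 4-leaf seedlings (2–18 cm). Compound carried in a non-phytotoxic solvent mixture with surfactant. Greenhouse, 14–21 days; visual comparison with controls, scored 0 (none) to 100 (full control).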

crabgrass, Brazil = test: Test F preemergence; format: in vivo, Digitaria horizontalis
Summary of the method: as §2

green foxtail = test: Test F preemergence; format: in vivo, Setaria viridis
Summary of the method: as §2

johnsongrass = test: Test F preemergence; format: in vivo, Sorghum halepense
Summary of the method: as §2

barnyardgrass = test: Test F preemergence; format: in vivo, Echinochloa crus-galli
Summary of the method: as §2

[3] = Preemergence, 31 g ai/ha, scale 0 to 100
[4] = Preemergence, 62 g ai/ha, scale 0 to 100
[5] = Preemergence, 125 g ai/ha, scale 0 to 100
[6] = preemergence, 8 g ai/ha, scale 0 to 100, 100 is complete control
[7] = preemergence, 16 g ai/ha, scale 0 to 100, 100 is complete control
[8] = Preemergence, 16 g ai/ha, scale 0 to 100

CCCc1cc(C(=O)NCC(F)(F)F)nn1Cc1ccnc(C(F)(F)F)c1 [Compound 105] was tested, and the “Plant response rating, Blackgrass” value (blackgrass; 31 g ai/ha) was 25, the “Plant response rating, Blackgrass” value (blackgrass; 62 g ai/ha) was 80 and the “Plant response rating, Blackgrass” value (blackgrass; 125 g ai/ha) was 100. The “Plant response rating, Blackgrass” value (blackgrass; 250 g ai/ha) was 100, the “Plant response rating, Bromegrass, Downy” value (bromegrass, downy; 31 g ai/ha) was 5 and the “Plant response rating, Bromegrass, Downy” value (bromegrass, downy; 62 g ai/ha) was 15. For the same compound, the “Plant response rating, Bromegrass, Downy” value (bromegrass, downy; 125 g ai/ha) was 55, the “Plant response rating, Bromegrass, Downy” value (bromegrass, downy; 250 g ai/ha) was 95 and the “Plant response rating, Field Poppy” value (field poppy; 31 g ai/ha) was 100. For the same compound, the “Plant response rating, Field Poppy” value (field poppy; 62 g ai/ha) was 100, the “Plant response rating, Field Poppy” value (field poppy; 125 g ai/ha) was 100 and the “Plant response rating, Field Poppy” value (field poppy; 250 g ai/ha) was 100. For the same compound, the “Plant response rating, Field Violet” value (field violet; 31 g ai/ha) was 100, the “Plant response rating, Field Violet” value (field violet; 62 g ai/ha) was 100 and the “Plant response rating, Field Violet” value (field violet; 125 g ai/ha) was 100. For the same compound, the “Plant response rating, Field Violet” value (field violet; 250 g ai/ha) was 100, the “Plant response rating, Oilseed Rape” value (oilseed rape [1]; 31 g ai/ha) was 0 and the “Plant response rating, Oilseed Rape” value (oilseed rape [1]; 62 g ai/ha) was 10. The “Plant response rating, Oilseed Rape” value (oilseed rape [1]; 125 g ai/ha) was 70, the “Plant response rating, Oilseed Rape” value (oilseed rape [1]; 250 g ai/ha) was 95 and the “Oilseed Rape plant response rating” value (oilseed rape [2]; Postemergence, 31 g ai/ha) was 40. The “Oilseed Rape plant response rating” value (oilseed rape [2]; Postemergence, 125 g ai/ha) was 70, the “Oilseed Rape plant response rating” value (oilseed rape [2]; Postemergence, 250 g ai/ha) was 85 and the “Oilseed Rape plant response rating” value (oilseed rape [2]; postemergence, 62 g ai/ha) was 60. The “Speedwell plant response rating” value (speedwell; Postemergence, 31 g ai/ha) was 60, the “Speedwell plant response rating” value (speedwell; Postemergence, 125 g ai/ha) was 70 and the “Speedwell plant response rating” value (speedwell; Postemergence, 250 g ai/ha) was 95. The “Speedwell plant response rating” value (speedwell; postemergence, 62 g ai/ha) was 80, the “Barley, Spring plant response rating” value (barley, spring; Postemergence, 31 g ai/ha) was 10 and the “Barley, Spring plant response rating” value (barley, spring; Postemergence, 125 g ai/ha) was 30. For the same compound, the “Barley, Spring plant response rating” value (barley, spring; Postemergence, 250 g ai/ha) was 45, the “Barley, Spring plant response rating” value (barley, spring; postemergence, 62 g ai/ha) was 10 and the “Barley, Winter plant response rating” value (barley, winter; Postemergence, 31 g ai/ha) was 10. For the same compound, the “Barley, Winter plant response rating” value (barley, winter; Postemergence, 125 g ai/ha) was 20, the “Barley, Winter plant response rating” value (barley, winter; Postemergence, 250 g ai/ha) was 30 and the “Barley, Winter plant response rating” value (barley, winter; postemergence, 62 g ai/ha) was 10. For the same compound, the “Plant response rating, Corn” value (corn; [3]) was 40, the “Plant response rating, Corn” value (corn; [4]) was 40 and the “Plant response rating, Corn” value (corn; [5]) was 60. For the same compound, the “Plant response rating, Corn” value (corn; [6]) was 20, the “Plant response rating, Corn” value (corn; [7]) was 30 and the “Plant response rating, Crabgrass, Brazil” value (crabgrass, Brazil; [3]) was 98. The “Plant response rating, Crabgrass, Brazil” value (crabgrass, Brazil; [4]) was 100, the “Plant response rating, Crabgrass, Brazil” value (crabgrass, Brazil; [5]) was 100 and the “Plant response rating, Crabgrass, Brazil” value (crabgrass, Brazil; [6]) was 5. The “Plant response rating, Crabgrass, Brazil” value (crabgrass, Brazil; [7]) was 40, the “Plant response rating, Green Foxtail” value (green foxtail; [3]) was 75 and the “Plant response rating, Green Foxtail” value (green foxtail; [4]) was 100. For the same compound, the “Plant response rating, Green Foxtail” value (green foxtail; [5]) was 100, the “Plant response rating, Green Foxtail” value (green foxtail; [6]) was 0 and the “Plant response rating, Green Foxtail” value (green foxtail; [7]) was 25. For the same compound, the “Plant response rating, Johnsongrass” value (johnsongrass; [3]) was 75, the “Plant response rating, Johnsongrass” value (johnsongrass; [4]) was 98 and the “Plant response rating, Johnsongrass” value (johnsongrass; [5]) was 98. The “Plant response rating, Johnsongrass” value (johnsongrass; [6]) was 0, the “Plant response rating, Johnsongrass” value (johnsongrass; [7]) was 25 and the “Plant response rating, Barnyardgrass” value (barnyardgrass; [3]) was 30. The “Plant response rating, Barnyardgrass” value (barnyardgrass; [4]) was 98, the “Plant response rating, Barnyardgrass” value (barnyardgrass; [5]) was 98 and the “Plant response rating, Barnyardgrass” value (barnyardgrass; [6]) was 0. The “Plant response rating, Barnyardgrass” value (barnyardgrass; [7]) was 5.

For CCOc1cc(C(=O)NC(C)C)nn1Cc1ccnc(C(F)(F)F)c1 [Compound 188], the “Plant response rating, Blackgrass” value (blackgrass; 31 g ai/ha) was 55, the “Plant response rating, Blackgrass” value (blackgrass; 62 g ai/ha) was 75 and the “Plant response rating, Blackgrass” value (blackgrass; 125 g ai/ha) was 100. The “Plant response rating, Blackgrass” value (blackgrass; 250 g ai/ha) was 100, the “Plant response rating, Bromegrass, Downy” value (bromegrass, downy; 31 g ai/ha) was 20 and the “Plant response rating, Bromegrass, Downy” value (bromegrass, downy; 62 g ai/ha) was 75. For the same compound, the “Plant response rating, Bromegrass, Downy” value (bromegrass, downy; 125 g ai/ha) was 85, the “Plant response rating, Bromegrass, Downy” value (bromegrass, downy; 250 g ai/ha) was 100 and the “Plant response rating, Field Poppy” value (field poppy; 62 g ai/ha) was 100. For the same compound, the “Plant response rating, Field Poppy” value (field poppy; 125 g ai/ha) was 100, the “Plant response rating, Field Poppy” value (field poppy; 250 g ai/ha) was 100 and the “Plant response rating, Field Violet” value (field violet; 62 g ai/ha) was 100. For the same compound, the “Plant response rating, Field Violet” value (field violet; 125 g ai/ha) was 100, the “Plant response rating, Field Violet” value (field violet; 250 g ai/ha) was 100 and the “Plant response rating, Oilseed Rape” value (oilseed rape [1]; 62 g ai/ha) was 85. The “Plant response rating, Oilseed Rape” value (oilseed rape [1]; 125 g ai/ha) was 100, the “Plant response rating, Oilseed Rape” value (oilseed rape [1]; 250 g ai/ha) was 100 and the “Oilseed Rape plant response rating” value (oilseed rape [2]; Postemergence, 31 g ai/ha) was 55. For the same compound, the “Oilseed Rape plant response rating” value (oilseed rape [2]; Postemergence, 125 g ai/ha) was 55, the “Oilseed Rape plant response rating” value (oilseed rape [2]; Postemergence, 250 g ai/ha) was 70 and the “Oilseed Rape plant response rating” value (oilseed rape [2]; postemergence, 62 g ai/ha) was 55. The “Speedwell plant response rating” value (speedwell; Postemergence, 31 g ai/ha) was 75, the “Speedwell plant response rating” value (speedwell; Postemergence, 125 g ai/ha) was 80 and the “Speedwell plant response rating” value (speedwell; Postemergence, 250 g ai/ha) was 90. For the same compound, the “Speedwell plant response rating” value (speedwell; postemergence, 62 g ai/ha) was 75, the “Barley, Spring plant response rating” value (barley, spring; Postemergence, 31 g ai/ha) was 15 and the “Barley, Spring plant response rating” value (barley, spring; Postemergence, 125 g ai/ha) was 25. The “Barley, Spring plant response rating” value (barley, spring; Postemergence, 250 g ai/ha) was 65, the “Barley, Spring plant response rating” value (barley, spring; postemergence, 62 g ai/ha) was 15 and the “Barley, Winter plant response rating” value (barley, winter; Postemergence, 31 g ai/ha) was 15. The “Barley, Winter plant response rating” value (barley, winter; Postemergence, 125 g ai/ha) was 40, the “Barley, Winter plant response rating” value (barley, winter; Postemergence, 250 g ai/ha) was 65 and the “Barley, Winter plant response rating” value (barley, winter; postemergence, 62 g ai/ha) was 15. For the same compound, the “Plant response rating, Corn” value (corn; [4]) was 15, the “Plant response rating, Corn” value (corn; [5]) was 65 and the “Plant response rating, Corn” value (corn; [6]) was 20. The “Plant response rating, Crabgrass, Brazil” value (crabgrass, Brazil; [8]) was 100, the “Plant response rating, Crabgrass, Brazil” value (crabgrass, Brazil; [4]) was 100 and the “Plant response rating, Crabgrass, Brazil” value (crabgrass, Brazil; [5]) was 100. For the same compound, the “Plant response rating, Crabgrass, Brazil” value (crabgrass, Brazil; [6]) was 35, the “Plant response rating, Green Foxtail” value (green foxtail; [4]) was 100 and the “Plant response rating, Green Foxtail” value (green foxtail; [5]) was 100. The “Plant response rating, Green Foxtail” value (green foxtail; [6]) was 5, the “Plant response rating, Johnsongrass” value (johnsongrass; [4]) was 80 and the “Plant response rating, Johnsongrass” value (johnsongrass; [5]) was 95. The “Plant response rating, Johnsongrass” value (johnsongrass; [6]) was 0, the “Plant response rating, Barnyardgrass” value (barnyardgrass; [8]) was 25 and the “Plant response rating, Barnyardgrass” value (barnyardgrass; [4]) was 80. For the same compound, the “Plant response rating, Barnyardgrass” value (barnyardgrass; [5]) was 100 and the “Plant response rating, Barnyardgrass” value (barnyardgrass; [6]) was 0.
